In PubChem BioAssay (NCI):
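Briefly, cells in 96-well plates were exposed to five compound concentrations for 48 h, and endpoints were estimated by linear interpolation. The concentration for full growth arrest is given as TGI.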

Columns and labels:
Test in all cases: growth of human tumour cells (NCI), 48 h
HT29 colon = test system: HT29 colon
SNB-19 CNS = test system: SNB-19 CNS
MCF7 breast = test system: MCF7 breast
NCI-H460 lung = test system: NCI-H460 lung
TK-10 renal = test system: TK-10 renal
MDA-MB-435 = test system: MDA-MB-435
NCI-H23 lung = test system: NCI-H23 lung
T-47D breast = test system: T-47D breast
SF-268 CNS = test system: SF-268 CNS
UO-31 renal = test system: UO-31 renal
OVCAR-4 ovarian = test system: OVCAR-4 ovarian
NCI-H226 lung = test system: NCI-H226 lung
EKVX NSCLC = test system: EKVX NSCLC
DU-145 prostate = test system: DU-145 prostate
LOX IMVI melanoma = test system: LOX IMVI melanoma
786-0 renal = test system: 786-0 renal
COLO 205 colon = test system: COLO 205 colon
MALME-3M melanoma = test system: MALME-3M melanoma
UACC-257 melanoma = test system: UACC-257 melanoma
MOLT-4 leukemia = test system: MOLT-4 leukemia
SK-MEL-2 melanoma = test system: SK-MEL-2 melanoma
IGROV1 ovarian = test system: IGROV1 ovarian
UACC-62 melanoma = test system: UACC-62 melanoma
HCT-116 colon = test system: HCT-116 colon
MDA-MB-231 breast = test system: MDA-MB-231 breast
SK-MEL-28 melanoma = test system: SK-MEL-28 melanoma
HCC-2998 colon = test system: HCC-2998 colon
NCI-H522 lung = test system: NCI-H522 lung
K-562 leukemia = test system: K-562 leukemia
SNB-75 CNS = test system: SNB-75 CNS
OVCAR-3 ovarian = test system: OVCAR-3 ovarian
OVCAR-8 ovarian = test system: OVCAR-8 ovarian
SW-620 colon = test system: SW-620 colon
SK-OV-3 ovarian = test system: SK-OV-3 ovarian
SN12C renal = test system: SN12C renal
SF-295 CNS = test system: SF-295 CNS
U251 CNS = test system: U251 CNS
HOP-62 NSCLC = test system: HOP-62 NSCLC
M14 melanoma = test system: M14 melanoma
MDA-N = test system: MDA-N
SK-MEL-5 melanoma = test system: SK-MEL-5 melanoma
NCI/ADR-RES ovarian = test system: NCI/ADR-RES ovarian
CCRF-CEM leukemia = test system: CCRF-CEM leukemia
RPMI-8226 leukemia = test system: RPMI-8226 leukemia
RXF 393 renal = test system: RXF 393 renal
SF-539 CNS = test system: SF-539 CNS
HL-60(TB) leukemia = test system: HL-60(TB) leukemia
HCT-15 colon = test system: HCT-15 colon
A549 NSCLC = test system: A549 NSCLC
CAKI-1 renal = test system: CAKI-1 renal
SR leukemia = test system: SR leukemia
KM12 colon = test system: KM12 colon
BT-549 breast = test system: BT-549 breast
PC-3 prostate = test system: PC-3 prostate
HS 578T breast = test system: HS 578T breast
OVCAR-5 ovarian = test system: OVCAR-5 ovarian
ACHN renal = test system: ACHN renal
HOP-92 NSCLC = test system: HOP-92 NSCLC
A498 renal = test system: A498 renal

## N#Cc1sc2c(c1OC(=O)c1ccco1)c(=O)n(-c1ccccc1)c(=S)n2-c1ccccc1
HT29 colon
  TGI: > 100 µM
SNB-19 CNS
  TGI: > 100 µM
MCF7 breast
  TGI: > 100 µM
NCI-H460 lung
  TGI: > 100 µM
TK-10 renal
  TGI: > 100 µM
MDA-MB-435
  TGI: 84.4 µM
NCI-H23 lung
  TGI: > 100 µM
T-47D breast
  TGI: 77.5 µM
SF-268 CNS
  TGI: > 100 µM
UO-31 renal
  TGI: 44.1 µM
OVCAR-4 ovarian
  TGI: 81.2 µM
NCI-H226 lung
  TGI: > 100 µM
EKVX NSCLC
  TGI: > 100 µM
DU-145 prostate
  TGI: > 100 µM
LOX IMVI melanoma
  TGI: 45.6 µM
786-0 renal
  TGI: > 100 µM
COLO 205 colon
  TGI: 61.5 µM
MALME-3M melanoma
  TGI: 58.2 µM
UACC-257 melanoma
  TGI: > 100 µM
MOLT-4 leukemia
  TGI: 43.4 µM
SK-MEL-2 melanoma
  TGI: 84.2 µM
IGROV1 ovarian
  TGI: > 10 µM
UACC-62 melanoma
  TGI: 34.1 µM
HCT-116 colon
  TGI: 41.6 µM
MDA-MB-231 breast
  TGI: 73.8 µM
SK-MEL-28 melanoma
  TGI: > 100 µM
HCC-2998 colon
  TGI: > 100 µM
NCI-H522 lung
  TGI: 64.4 µM
K-562 leukemia
  TGI: 96 µM
SNB-75 CNS
  TGI: 84.5 µM
OVCAR-3 ovarian
  TGI: 75.5 µM
OVCAR-8 ovarian
  TGI: > 100 µM
SW-620 colon
  TGI: > 100 µM
SK-OV-3 ovarian
  TGI: > 100 µM
SN12C renal
  TGI: > 100 µM
SF-295 CNS
  TGI: > 100 µM
U251 CNS
  TGI: 80.9 µM
HOP-62 NSCLC
  TGI: > 100 µM
M14 melanoma
  TGI: 73.3 µM
MDA-N
  TGI: 47.1 µM
SK-MEL-5 melanoma
  TGI: 33.7 µM
NCI/ADR-RES ovarian
  TGI: 82 µM
CCRF-CEM leukemia
  TGI: > 10 µM
RPMI-8226 leukemia
  TGI: 59.3 µM
RXF 393 renal
  TGI: 69.6 µM
SF-539 CNS
  TGI: 52.7 µM
HL-60(TB) leukemia
  TGI: > 100 µM
HCT-15 colon
  TGI: 52.4 µM
A549 NSCLC
  TGI: > 100 µM
CAKI-1 renal
  TGI: > 100 µM
SR leukemia
  TGI: > 10 µM
KM12 colon
  TGI: > 100 µM
BT-549 breast
  TGI: > 100 µM
PC-3 prostate
  TGI: > 100 µM
HS 578T breast
  TGI: > 100 µM

## CCOc1ccccc1N=NC1C(=O)N(C(=O)CC(=O)Nc2ccccc2C)N=C1C (stereo unspecified)
OVCAR-5 ovarian
  TGI: > 100 µM
HT29 colon
  TGI: > 100 µM
MCF7 breast
  TGI: > 100 µM
NCI-H460 lung
  TGI: > 100 µM
TK-10 renal
  TGI: > 100 µM
MDA-MB-435
  TGI: > 100 µM
NCI-H23 lung
  TGI: > 100 µM
T-47D breast
  TGI: > 100 µM
SF-268 CNS
  TGI: 63.6 µM
UO-31 renal
  TGI: 63.6 µM
OVCAR-4 ovarian
  TGI: > 100 µM
NCI-H226 lung
  TGI: > 100 µM
EKVX NSCLC
  TGI: 43.7 µM
DU-145 prostate
  TGI: > 100 µM
LOX IMVI melanoma
  TGI: > 100 µM
786-0 renal
  TGI: > 100 µM
COLO 205 colon
  TGI: > 100 µM
MALME-3M melanoma
  TGI: > 100 µM
ACHN renal
  TGI: > 100 µM
MOLT-4 leukemia
  TGI: > 100 µM
SK-MEL-2 melanoma
  TGI: > 100 µM
IGROV1 ovarian
  TGI: > 100 µM
HOP-92 NSCLC
  TGI: 40.8 µM
UACC-62 melanoma
  TGI: > 100 µM
HCT-116 colon
  TGI: > 100 µM
MDA-MB-231 breast
  TGI: > 100 µM
SK-MEL-28 melanoma
  TGI: > 100 µM
HCC-2998 colon
  TGI: > 100 µM
A498 renal
  TGI: > 100 µM
NCI-H522 lung
  TGI: > 100 µM
SNB-75 CNS
  TGI: 54.6 µM
OVCAR-3 ovarian
  TGI: > 100 µM
OVCAR-8 ovarian
  TGI: > 100 µM
SW-620 colon
  TGI: > 100 µM
SK-OV-3 ovarian
  TGI: 56.1 µM
SN12C renal
  TGI: > 100 µM
SF-295 CNS
  TGI: 36 µM
U251 CNS
  TGI: 49.1 µM
HOP-62 NSCLC
  TGI: 41.5 µM
M14 melanoma
  TGI: > 100 µM
MDA-N
  TGI: > 100 µM
SK-MEL-5 melanoma
  TGI: > 100 µM
NCI/ADR-RES ovarian
  TGI: > 100 µM
CCRF-CEM leukemia
  TGI: > 100 µM
RPMI-8226 leukemia
  TGI: > 100 µM
RXF 393 renal
  TGI: 89.4 µM
SF-539 CNS
  TGI: > 100 µM
HL-60(TB) leukemia
  TGI: > 100 µM
HCT-15 colon
  TGI: > 100 µM
A549 NSCLC
  TGI: > 100 µM
CAKI-1 renal
  TGI: > 100 µM
SR leukemia
  TGI: > 100 µM
KM12 colon
  TGI: > 100 µM
BT-549 breast
  TGI: > 100 µM
PC-3 prostate
  TGI: > 100 µM
HS 578T breast
  TGI: 31.5 µM
